From ChEMBL document CHEMBL1132727, “A novel pyridazinone derivative as a nonprostanoid PGI2 agonist” (Bioorg Med Chem Lett, 2000)

Assays:
[1] = Half-life after intravenous administration in female rat; assay type: ADME, organism-based; details: in vivo
[2] = Half-life after intravenous administration in male rat; assay type: ADME, organism-based; details: in vivo
Prostacyclin receptor = Prostacyclin receptor (Homo sapiens, UniProt P43119); assay: Tested for inhibition of 3[H]-iloprost binding to human IP receptor
Homo sapiens = species: Homo sapiens; assay: Tested for Concentration required for the inhibition of ADP-induced aggregation of human platelets; assay type: functional
[3] = Half-life after administration of 3.2 mg/kg intravenously in male rat; assay type: ADME, organism-based; parameters: dose 3.2 mg/kg, route intravenous; details: in vivo, iv
[4] = Oral Bioavailability after administration of 10 mg/kg in male rat; assay type: ADME, organism-based; details: in vivo, read-out: Bioavailabiility

Chain of Prostacyclin receptor (P43119 whole entry): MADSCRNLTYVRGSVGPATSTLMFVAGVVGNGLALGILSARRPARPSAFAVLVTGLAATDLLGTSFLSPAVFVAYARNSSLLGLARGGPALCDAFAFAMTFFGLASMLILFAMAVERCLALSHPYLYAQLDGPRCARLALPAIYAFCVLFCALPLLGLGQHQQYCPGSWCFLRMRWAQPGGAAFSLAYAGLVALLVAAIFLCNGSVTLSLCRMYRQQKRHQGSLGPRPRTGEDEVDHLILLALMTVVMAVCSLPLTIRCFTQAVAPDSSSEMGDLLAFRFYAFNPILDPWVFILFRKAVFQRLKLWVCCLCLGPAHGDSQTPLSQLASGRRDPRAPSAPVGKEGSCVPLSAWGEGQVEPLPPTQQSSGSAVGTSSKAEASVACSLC

Ki (Prostacyclin receptor)	IC50 (Homo sapiens)	SMILES	other results
80 nM	4.3 nM	CC#CCC(C)[C@H](O)/C=C/[C@H]1[C@H](O)CC2Oc3c(CCCC(=O)[O-])cccc3[C@@H]21.[Na+] (some centres not stated)	half-life [1]: 3.3 h; half-life [2]: 0.43 h
	130 nM	O=C(O)COc1cccc2c1CC[C@H](Cn1cc(C(c3ccccc3)c3ccccc3)ccc1=O)C2	
	150 nM	CCC/C(CC1CCc2c(cccc2OCC(=O)O)C1)=N\OC(c1ccccc1)c1ccccc1 (configuration not stated) [AP-227]	
94 nM	81 nM	O=C(O)COc1cccc2c1CC[C@H](Cn1nc(C(c3ccccc3)c3ccccc3)ccc1=O)C2	half-life [3]: 4.3 h; bioavailability [4]: 56%
	41 nM	O=C(O)COc1cccc2c1CCC(Cn1cc(C(c3ccccc3)c3ccccc3)cn1)=C2	
	> 10000 nM	O=C(O)COc1cccc2c1CC[C@H](Cn1cccc(C(c3ccccc3)c3ccccc3)c1=O)C2	
